Activity calls are given as the source filed them.

What is called IC50 is the concentration that inhibits the measured activity by half. By EC50 is commonly meant the concentration at which the effect is half-maximal. The term Ki denotes the equilibrium dissociation constant of an inhibitor or competing ligand from its target.

Experiment [1] can be described thus: nonselective inhibitors of cellular cAMP signaling, dose response, counter-screen for MC4R biased antagonist project, cell-based, TR-FRET cAMP detection (AID 602305).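 Note: U2OS cells stimulated with forskolin near its EC80 as the cAMP inducer; potency is for inhibition of forskolin-stimulated cAMP signaling.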 Format: functional.
A further experiment concerns Streptococcus. The experiment in a line: Group A Streptococcus viability loss, dose response, counter-screen for streptokinase expression inhibitor project, luminescence, BacTiterGlo (AID 1915).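 Note: potency for reduction of bacterial viability or growth.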 Format: functional, organism-based. For orientation: A counterscreen serves to expose hits that act by an unwanted route or on another target.
Experiment [2] deals with T1, Matrix metalloproteinase-14 (Homo sapiens, UniProt P50281). The experiment can be described thus: Dose Response confirmation of uHTS hits for a small molecule inhibitors of MT1-MMP activation in a fluorescence assay set 1. Format: functional.
The next experiment concerns the target Beta-galactosidase (Escherichia coli, UniProt Q8VNN2). The experiment in a line: beta-galactosidase enzyme inhibitors and activators, dose response, artefact control for CCR6 antagonist project, biochemical, E. coli enzyme, set 3 (AID 504712). Format: functional.
For experiment [3], the target named is T1, Matrix metalloproteinase-14. The experiment in a line: SAR confirmation of uHTS hits for a small molecule inhibitors of MT1-MMP activation in a fluorescence assay. Format: functional.
For experiment [4], the target named is C-C chemokine receptor type 6 (Homo sapiens, UniProt P51684). The experiment can be described thus: CCR6 receptor antagonists, dose response, cell-based, luminescent beta-arrestin readout (AID 504728). The experiment is classed as functional.
In experiment [5] the target is Serine/threonine-protein kinase D3 (Homo sapiens, UniProt O94806). The experiment is classed as functional.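 Note: determined within a kinase panel screen, with PRKCN as the panel member.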
For experiment [6], the target named is ALK tyrosine kinase receptor (Homo sapiens, UniProt Q9UM73). The experiment is classed as functional.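 Note: ALK tested as one member of a kinase panel screen.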
The target of experiment [7] is Hepatocyte growth factor receptor (Homo sapiens, UniProt P08581). The experiment is classed as functional.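 Note: kinase panel profiling across the kinome, with MET as the panel member.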
Experiment [8] has as its target Dual specificity mitogen-activated protein kinase kinase 1 (Homo sapiens, UniProt Q02750). The experiment can be described thus: Navigating the Kinome. Panel member name: MAP2K1. Format: functional.
Experiment [9] deals with Leukocyte tyrosine kinase receptor (Homo sapiens, UniProt P29376). The experiment in a line: Navigating the Kinome. Panel member name: LTK. The experiment is classed as functional.
For a further experiment, the target named is LIM domain kinase 1 (Homo sapiens, UniProt P53667). The experiment can be described thus: Navigating the Kinome. Panel member name: LIMK1. The experiment is classed as functional.
In experiment [10] the target is 5'-AMP-activated protein kinase catalytic subunit alpha-1 (Homo sapiens, UniProt Q13131). Format: functional.
Another experiment concerns the target Activated CDC42 kinase 1 (Homo sapiens, UniProt Q07912). The experiment can be described thus: Navigating the Kinome. Panel member name: ACK1. Format: functional.
Experiment [11] concerns the target Vascular endothelial growth factor receptor 2 (Homo sapiens, UniProt P35968). The experiment is classed as functional.
In experiment [12] the target is Cyclin-dependent kinase 8 (Homo sapiens, UniProt P49336). The experiment in a line: Navigating the Kinome. Panel member name: CDK8. Format: functional.
Experiment [13] deals with Inhibitor of nuclear factor kappa-B kinase subunit epsilon (Homo sapiens, UniProt Q14164). The experiment can be described thus: Navigating the Kinome. Panel member name: IKBKE. The experiment is classed as functional.
The target of experiment [14] is Platelet-derived growth factor receptor alpha (Homo sapiens, UniProt P16234). The experiment can be described thus: Navigating the Kinome. Panel member name: PDGFRA. The experiment is classed as functional.
The target of experiment [15] is Dual specificity tyrosine-phosphorylation-regulated kinase 1A (Homo sapiens, UniProt Q13627). Format: functional.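 Note: measured against DYRK1A as one member of a broad kinome profiling panel.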
For experiment [16], the target named is Casein kinase I isoform alpha (Homo sapiens, UniProt P48729). Format: functional.
The target in experiment [17] is Tyrosine-protein kinase ABL1 (Homo sapiens, UniProt P00519). Format: functional.
For a further experiment, the target named is Aurora kinase A (Homo sapiens, UniProt O14965). Format: functional.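 Note: value from the Navigating the Kinome kinase panel profiling, panel entry STK6.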
The target of experiment [18] is Mitogen-activated protein kinase kinase kinase kinase 4 (Homo sapiens, UniProt O95819). Format: functional.
In experiment [19] the target is T2, Tyrosine-protein kinase JAK3 (Homo sapiens, UniProt P52333).
T2 sequence (P52333 whole entry): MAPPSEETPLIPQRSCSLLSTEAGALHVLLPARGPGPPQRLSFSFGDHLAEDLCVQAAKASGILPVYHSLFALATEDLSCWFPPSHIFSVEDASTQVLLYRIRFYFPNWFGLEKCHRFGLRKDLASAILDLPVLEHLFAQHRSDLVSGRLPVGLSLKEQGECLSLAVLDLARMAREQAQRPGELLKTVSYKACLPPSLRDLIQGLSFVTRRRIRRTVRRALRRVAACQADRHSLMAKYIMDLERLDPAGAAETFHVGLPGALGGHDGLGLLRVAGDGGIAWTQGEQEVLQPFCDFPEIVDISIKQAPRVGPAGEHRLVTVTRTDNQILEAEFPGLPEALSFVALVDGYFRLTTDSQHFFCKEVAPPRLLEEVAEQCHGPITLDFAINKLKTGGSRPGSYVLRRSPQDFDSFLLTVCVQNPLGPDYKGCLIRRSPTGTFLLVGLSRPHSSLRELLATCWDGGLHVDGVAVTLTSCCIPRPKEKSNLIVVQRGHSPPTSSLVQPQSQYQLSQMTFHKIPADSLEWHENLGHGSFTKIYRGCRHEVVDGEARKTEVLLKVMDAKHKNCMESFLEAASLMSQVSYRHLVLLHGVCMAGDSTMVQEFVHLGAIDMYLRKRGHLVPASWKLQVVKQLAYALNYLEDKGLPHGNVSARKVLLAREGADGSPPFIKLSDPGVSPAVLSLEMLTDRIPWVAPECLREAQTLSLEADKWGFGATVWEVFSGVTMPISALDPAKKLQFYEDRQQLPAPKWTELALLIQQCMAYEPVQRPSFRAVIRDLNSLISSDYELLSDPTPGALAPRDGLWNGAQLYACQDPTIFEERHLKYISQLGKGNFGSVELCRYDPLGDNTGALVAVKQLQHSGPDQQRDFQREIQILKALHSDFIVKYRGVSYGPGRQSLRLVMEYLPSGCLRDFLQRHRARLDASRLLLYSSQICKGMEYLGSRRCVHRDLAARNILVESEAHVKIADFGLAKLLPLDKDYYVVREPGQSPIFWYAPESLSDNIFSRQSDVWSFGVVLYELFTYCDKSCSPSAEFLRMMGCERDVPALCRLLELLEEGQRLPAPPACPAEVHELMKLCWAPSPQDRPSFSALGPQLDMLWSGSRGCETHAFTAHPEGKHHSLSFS
Format: functional.

Serine/threonine-protein kinase D3, sequence (O94806 whole entry): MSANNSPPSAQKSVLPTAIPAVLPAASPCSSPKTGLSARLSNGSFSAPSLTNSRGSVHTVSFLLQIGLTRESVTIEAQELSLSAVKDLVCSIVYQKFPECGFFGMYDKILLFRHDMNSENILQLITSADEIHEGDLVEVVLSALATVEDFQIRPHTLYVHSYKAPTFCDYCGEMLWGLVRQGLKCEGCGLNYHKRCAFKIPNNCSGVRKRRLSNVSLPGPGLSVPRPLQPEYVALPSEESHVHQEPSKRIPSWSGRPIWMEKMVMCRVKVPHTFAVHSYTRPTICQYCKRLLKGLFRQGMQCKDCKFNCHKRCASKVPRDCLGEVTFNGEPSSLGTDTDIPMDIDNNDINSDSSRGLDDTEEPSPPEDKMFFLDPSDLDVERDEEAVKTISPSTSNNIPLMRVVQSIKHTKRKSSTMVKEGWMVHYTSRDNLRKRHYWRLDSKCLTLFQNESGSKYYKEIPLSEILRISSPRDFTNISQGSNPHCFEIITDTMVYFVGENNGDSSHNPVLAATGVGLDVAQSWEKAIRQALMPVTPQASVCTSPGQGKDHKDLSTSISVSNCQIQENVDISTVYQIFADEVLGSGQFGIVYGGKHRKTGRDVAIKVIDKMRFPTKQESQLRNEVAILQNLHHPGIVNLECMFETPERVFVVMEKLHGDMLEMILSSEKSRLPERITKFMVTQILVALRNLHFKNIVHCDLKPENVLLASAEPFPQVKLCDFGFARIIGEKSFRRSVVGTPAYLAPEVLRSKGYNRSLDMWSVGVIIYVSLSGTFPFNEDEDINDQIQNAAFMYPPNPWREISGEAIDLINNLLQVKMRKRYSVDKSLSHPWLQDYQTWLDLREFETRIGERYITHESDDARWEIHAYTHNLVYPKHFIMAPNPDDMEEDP
Vascular endothelial growth factor receptor 2, sequence (P35968 whole entry): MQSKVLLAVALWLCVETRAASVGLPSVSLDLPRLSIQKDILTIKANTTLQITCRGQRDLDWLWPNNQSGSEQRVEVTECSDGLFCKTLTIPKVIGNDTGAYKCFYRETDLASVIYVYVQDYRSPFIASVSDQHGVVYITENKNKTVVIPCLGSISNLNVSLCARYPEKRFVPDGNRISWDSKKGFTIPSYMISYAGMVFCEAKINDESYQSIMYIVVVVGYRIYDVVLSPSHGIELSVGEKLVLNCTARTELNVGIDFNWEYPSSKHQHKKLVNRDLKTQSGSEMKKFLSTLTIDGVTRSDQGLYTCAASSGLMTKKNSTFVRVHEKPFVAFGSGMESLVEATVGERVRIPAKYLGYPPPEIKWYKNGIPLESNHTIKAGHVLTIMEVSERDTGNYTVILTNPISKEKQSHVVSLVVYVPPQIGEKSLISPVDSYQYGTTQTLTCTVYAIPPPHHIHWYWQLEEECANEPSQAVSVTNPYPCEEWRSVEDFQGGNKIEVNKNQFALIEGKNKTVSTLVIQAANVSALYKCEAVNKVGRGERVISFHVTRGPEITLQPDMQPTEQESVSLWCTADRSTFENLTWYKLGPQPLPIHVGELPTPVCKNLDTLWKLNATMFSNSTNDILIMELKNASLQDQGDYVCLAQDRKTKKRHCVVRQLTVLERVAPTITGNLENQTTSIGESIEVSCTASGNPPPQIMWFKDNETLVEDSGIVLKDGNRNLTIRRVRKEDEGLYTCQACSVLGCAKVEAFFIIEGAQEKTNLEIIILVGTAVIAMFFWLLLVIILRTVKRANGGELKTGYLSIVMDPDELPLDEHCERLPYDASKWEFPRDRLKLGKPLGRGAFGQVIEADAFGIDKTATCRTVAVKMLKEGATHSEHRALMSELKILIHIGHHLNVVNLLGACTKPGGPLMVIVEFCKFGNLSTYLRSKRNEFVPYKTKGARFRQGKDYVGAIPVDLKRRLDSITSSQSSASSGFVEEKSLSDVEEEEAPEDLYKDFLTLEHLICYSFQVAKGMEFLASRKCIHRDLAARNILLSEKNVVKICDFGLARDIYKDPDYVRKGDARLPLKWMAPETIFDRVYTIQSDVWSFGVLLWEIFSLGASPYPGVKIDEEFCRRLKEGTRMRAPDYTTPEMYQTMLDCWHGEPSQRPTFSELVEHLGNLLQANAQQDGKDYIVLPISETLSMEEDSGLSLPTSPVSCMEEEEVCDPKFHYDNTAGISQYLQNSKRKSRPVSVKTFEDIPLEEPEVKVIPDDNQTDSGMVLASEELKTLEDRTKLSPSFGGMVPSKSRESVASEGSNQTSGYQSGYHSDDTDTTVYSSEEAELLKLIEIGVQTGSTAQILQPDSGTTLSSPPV
Aurora kinase A, sequence (O14965 whole entry): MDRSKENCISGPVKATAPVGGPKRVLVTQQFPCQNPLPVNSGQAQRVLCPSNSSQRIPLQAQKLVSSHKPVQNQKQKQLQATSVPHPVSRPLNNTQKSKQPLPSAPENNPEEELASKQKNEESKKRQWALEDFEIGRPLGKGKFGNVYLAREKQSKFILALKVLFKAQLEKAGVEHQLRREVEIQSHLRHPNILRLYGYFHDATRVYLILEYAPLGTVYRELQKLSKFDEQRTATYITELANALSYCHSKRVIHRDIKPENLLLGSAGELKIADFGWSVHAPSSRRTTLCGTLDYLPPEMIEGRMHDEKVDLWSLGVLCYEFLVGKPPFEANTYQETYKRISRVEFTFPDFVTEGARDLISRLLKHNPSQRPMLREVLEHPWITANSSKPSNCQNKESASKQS
Cyclin-dependent kinase 8, sequence (P49336 whole entry): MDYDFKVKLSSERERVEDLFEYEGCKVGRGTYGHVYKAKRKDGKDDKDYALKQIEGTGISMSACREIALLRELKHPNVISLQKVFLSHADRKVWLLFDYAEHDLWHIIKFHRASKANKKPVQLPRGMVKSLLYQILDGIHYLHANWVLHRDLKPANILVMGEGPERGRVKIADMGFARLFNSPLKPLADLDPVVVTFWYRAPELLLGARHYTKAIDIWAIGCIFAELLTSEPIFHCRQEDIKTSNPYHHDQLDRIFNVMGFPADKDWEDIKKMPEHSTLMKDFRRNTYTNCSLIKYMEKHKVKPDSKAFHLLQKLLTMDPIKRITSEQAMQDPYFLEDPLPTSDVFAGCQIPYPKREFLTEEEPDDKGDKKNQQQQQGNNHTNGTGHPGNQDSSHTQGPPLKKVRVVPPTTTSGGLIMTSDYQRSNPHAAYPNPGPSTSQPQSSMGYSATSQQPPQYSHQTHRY
Activated CDC42 kinase 1, sequence (Q07912 whole entry): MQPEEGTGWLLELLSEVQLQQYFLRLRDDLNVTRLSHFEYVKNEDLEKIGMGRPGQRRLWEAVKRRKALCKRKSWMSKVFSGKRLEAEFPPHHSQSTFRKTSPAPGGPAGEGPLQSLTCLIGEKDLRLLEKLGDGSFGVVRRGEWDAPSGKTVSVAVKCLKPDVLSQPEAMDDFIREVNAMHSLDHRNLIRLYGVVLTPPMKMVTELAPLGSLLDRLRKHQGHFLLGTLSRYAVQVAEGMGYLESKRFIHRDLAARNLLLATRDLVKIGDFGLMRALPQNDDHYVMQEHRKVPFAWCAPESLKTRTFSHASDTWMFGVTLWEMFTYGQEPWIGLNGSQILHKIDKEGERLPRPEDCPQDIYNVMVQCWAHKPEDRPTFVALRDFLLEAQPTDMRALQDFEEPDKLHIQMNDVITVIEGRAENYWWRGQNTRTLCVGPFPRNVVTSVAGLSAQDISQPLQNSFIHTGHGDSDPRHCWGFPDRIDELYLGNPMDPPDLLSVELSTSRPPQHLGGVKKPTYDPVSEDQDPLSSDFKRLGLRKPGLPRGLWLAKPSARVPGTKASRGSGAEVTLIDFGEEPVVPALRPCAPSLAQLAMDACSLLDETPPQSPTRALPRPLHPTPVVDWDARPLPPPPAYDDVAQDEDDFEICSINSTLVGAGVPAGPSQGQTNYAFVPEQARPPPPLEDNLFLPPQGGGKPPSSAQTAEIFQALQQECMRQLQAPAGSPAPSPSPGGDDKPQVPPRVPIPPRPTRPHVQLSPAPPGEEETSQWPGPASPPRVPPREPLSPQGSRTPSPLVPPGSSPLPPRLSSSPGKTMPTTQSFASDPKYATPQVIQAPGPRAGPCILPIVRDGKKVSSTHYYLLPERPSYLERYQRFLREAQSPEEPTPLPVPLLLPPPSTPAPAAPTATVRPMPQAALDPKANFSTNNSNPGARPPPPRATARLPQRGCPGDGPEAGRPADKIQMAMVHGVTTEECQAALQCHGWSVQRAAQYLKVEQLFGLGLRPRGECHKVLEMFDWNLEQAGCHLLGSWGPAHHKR
LIM domain kinase 1, sequence (P53667 whole entry, the tested form may be a part): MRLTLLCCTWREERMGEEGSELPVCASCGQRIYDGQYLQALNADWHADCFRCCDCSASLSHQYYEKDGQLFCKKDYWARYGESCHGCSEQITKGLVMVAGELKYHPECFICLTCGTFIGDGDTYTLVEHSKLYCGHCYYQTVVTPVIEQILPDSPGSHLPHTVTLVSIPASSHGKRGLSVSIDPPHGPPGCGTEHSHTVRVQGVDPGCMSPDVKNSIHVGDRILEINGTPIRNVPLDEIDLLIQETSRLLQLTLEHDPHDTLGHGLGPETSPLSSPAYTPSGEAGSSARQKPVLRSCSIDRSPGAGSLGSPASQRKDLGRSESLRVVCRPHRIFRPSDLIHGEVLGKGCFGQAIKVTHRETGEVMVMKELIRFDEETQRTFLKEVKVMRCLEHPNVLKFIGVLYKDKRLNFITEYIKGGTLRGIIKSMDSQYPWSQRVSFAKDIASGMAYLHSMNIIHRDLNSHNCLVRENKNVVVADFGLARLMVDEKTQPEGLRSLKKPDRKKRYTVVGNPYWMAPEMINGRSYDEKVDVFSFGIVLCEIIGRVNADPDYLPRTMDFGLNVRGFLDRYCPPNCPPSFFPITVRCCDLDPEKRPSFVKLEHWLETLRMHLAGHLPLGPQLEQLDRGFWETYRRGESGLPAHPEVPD

As to `O=Nc1c(-c2c(O)[nH]c3cc(Br)ccc23)[nH]c2ccccc12`, the IC50 in experiment [1] was > 64.6 µM (inactive); in experiment [2], 1.78 µM (active); on Beta-galactosidase, 40.8 µM (inactive); in [3], 8.89 µM (active); in experiment [4] it was > 66.6 µM (inactive). For the same compound, the EC50 in the experiment with Streptococcus was 3.48 µM (active).
For the compound `COc1cccc(C(C)NC(=O)c2ccc(-c3ccncc3)s2)c1` (centres undefined), the Ki in [5] is > 3.98 µM (inactive); in [6] it was > 6.31 µM (inactive); in experiment [7], > 2.51 µM (inactive); in [8], > 3.16 µM (inactive); in experiment [9] it was > 2.51 µM (inactive); on LIM domain kinase 1, > 3.16 µM (inactive). The Ki in [10] is > 3.16 µM (inactive); at Activated CDC42 kinase 1, > 3.98 µM (inactive); in [11], > 2.51 µM (inactive); in experiment [12], 3.16 µM (active); in experiment [13], > 3.16 µM (inactive); in experiment [14], > 2.51 µM (inactive). The Ki in experiment [15] was > 2 µM (inactive); in experiment [16], 1.58 µM (active); in experiment [17], > 2.51 µM (inactive); at Aurora kinase A it was 0.2 µM (active); in experiment [18], 5.01 µM (active); in experiment [19] it was > 5.01 µM (inactive).

The record behind these values is ChEMBL document CHEMBL1201862, “PubChem BioAssay data set” (2004).
